# According to patent publication US20230263822A1, “MODULATION OF FACTOR 11 EXPRESSION” (Ionis Pharmaceuticals, Inc., priority 2008, published 2023):
# Read-outs that look alike come from different tables or passages of the source.
# Columns and labels:
# [1] = test system: Factor 11 mRNA; test: Factor 11 mRNA in liver, FeCl3 induced venous thrombosis model vs Apixaban (Example 14); type: in vivo, BALB/c mice; conditions: for % inhibition of Factor 11 mRNA in liver relative to PBS control: FeCl3 VT model
# Experimental: ISIS 404071 and Apixaban were evaluated in the FeCl3 induced VT mouse model. […] Two days after receiving the last dose of ISIS 404071, mice were anesthetized with 150 mg/kg ketamine mixed with 10 mg/kg xylazine administered by intraperitoneal injection. […] Twenty minutes after receiving Apixaban, mice were anesthetized with 150 mg/kg ketamine mixed with 10 mg/kg xylazine administered by intraperitoneal injection. […] Two days after the last dose of PBS, mice in both groups were anesthetized with 150 mg/kg ketamine mixed with 10 mg/kg xylazine administered by intraperitoneal injection. Thrombus formation was induced with FeCl3 in all of the mice except the first control group.
# (§1) In mice undergoing FeCl3 treatment, thrombus formation was induced by applying a piece of filter paper (2×4 mm) pre-saturated with 10% FeCl3 solution directly on the vena cava. After 3 minutes of exposure, the filter paper was removed. Thirty minutes after the filter paper application, a fixed length of the vein containing the thrombus was dissected out for platelet analysis. Liver was collected for RNA analysis.
# RNA was extracted from liver tissue for real-time PCR analysis of Factor 11. Results are presented as percent inhibition of Factor 11, relative to PBS control.
# [2] = set-up: species or system BALB/c mice; conditions: mouse, in vivo; for Blood (tail bleeding, collected over 40 minutes): sc
# Experimental: ISIS 404071 and Apixaban were evaluated in the tail bleeding model.
# The saline filled tubes were weighed before and after bleeding.
# [3] = Tail bleeding assay vs warfarin (Example 12); conditions: mouse, in vivo; for Blood (tail bleeding, collected over 40 minutes): sc
# Experimental: A separate control group of BALB/c mice was treated with PBS, administered subcutaneously twice a week for 3 weeks.
# Mice were anesthetized in the chamber with isoflurane and a small piece of tail (approximately 4 mm from the tip) was cut with sterile scissors. The tail cut was immediately placed in a 15 mL Falcon tube filled with approximately 10 mL of 0.9% NaCl buffer solution warmed to 37° C. The blood was collected over the course of 40 minutes. The saline filled tubes were weighed both before and after bleeding.
# [4] = test system: blood coagulation; test: Ex vivo PT and aPTT in murine plasma, ISIS 404071 with LOVENOX (Example 16); set-up: species or system BALB/c mice; conditions: for PT INR in murine plasma / aPTT INR in murine plasma: LOVENOX 0
# Experimental: A control mouse group was treated with PBS, administered twice a week for 3 weeks. Five days after the last dose, the mice were sacrificed and plasma was collected. The low-molecular-weight (LMW) heparin, LOVENOX, was administered to the plasma ex vivo at varying concentrations of 0 μg/ml, 2.5 μg/ml, 5.0 μg/ml, and 7.5 μg/ml. PT and aPTT were measured 20 minutes after LOVENOX was administered.
# [5] = test system: platelet factor-4 (PF-4); test: Factor 7a protein antidote: PF-4 in FeCl3 induced VT model (Example 24); type: in vivo, BALB/c mice; conditions: ISIS 404071 20 mg/kg s.c. twice a week for 3 weeks; human Factor 7a 5 μg/kg fifteen minutes before FeCl3 where given
# Experimental: The effect of human Factor 7a (Factor VIIa) protein as an antidote for ISIS 404071 was tested in BALB/c mice. […] Thrombus formation was induced with FeCl3 in all of the mice except the first control group. Fifteen minutes before FeCl3 treatment, the first experimental group was treated with 5 μg/kg of human Factor 7a protein antidote (product no. 407act, American Diagnostica Inc.). Two days after their last dose, all mice were anesthetized with 150 mg/kg of ketamine mixed with 10 mg/kg of xylazine administered by intraperitoneal injection.
# as §1, with “analysis.” for “analysis. Liver was collected for RNA analysis.”
# Real-time PCR quantification of platelet factor-4 (PF-4) was used to quantify platelets in the vena cava as a measure of thrombus formation. Results are presented as a percentage of PF-4 in antidote treated and untreated mice, as compared to the two PBS-treated control groups.
# [6] = test system: blood coagulation; test: PT and aPTT, combination with Apixaban (Example 20); type: in vivo, BALB/c mice
# Experimental: PT and aPTT were measured using PPP from mice treated with ISIS 404071 in combination with Apixaban. In the first cohort, ISIS 404071 was administered subcutaneously to BALB/c mice at a dosage of 25 mg/kg twice a week for 3 weeks. Plasma was collected from these mice 5 days after receiving the last dose of ISIS 404071. In the second cohort, Apixaban was administered subcutaneously to BALB/c mice at a dosage of 6 mg/kg twice daily for three days. Plasma was collected from these mice 20 minutes after receiving the last dose of Apixaban. In the third cohort, ISIS 404071 was administered subcutaneously to BALB/c mice at a dosage of 20 mg/kg twice a week for 3 weeks, and Apixaban was administered subcutaneously at a dosage of 6 mg/kg twice daily on the last three days of ISIS 404071 treatment. Plasma was collected from these mice 20 minutes after receiving the last dose of Apixaban. In a fourth cohort, PBS was administered subcutaneously twice a week for three weeks, as a control. Plasma was collected 5 days after the last dose of PBS.
# PT and aPTT values provided in Table 32 are reported as International Normalized Ratio (INR) values. […] However, Apixaban and Apixaban combined with ISIS 404071 increased PT. Also shown in Table 32, Apixaban, ISIS 404071, and ISIS 404071 combined with Apixaban increase aPTT.
# [7] = ISIS 404071 10 mg/kg s.c. twice a week for 3 weeks
# [8] = ISIS 404071 20 mg/kg s.c. twice a week for 3 weeks
# [9] = ISIS 404071 40 mg/kg s.c. twice a week for 3 weeks
# [10] = murine plasma, ISIS 404071 10-40 mg/kg in vivo, LOVENOX 0-7.5 μg/ml ex vivo
# [11] = BALB/c mice, ISIS 404071 25 or 20 mg/kg, Apixaban 6 mg/kg twice daily
# [12] = ISIS 404071 alone 25 mg/kg s.c. twice a week for 3 weeks, Apixaban alone 6 mg/kg s.c. twice daily for three days, combination 20 mg/kg + 6 mg/kg
substance,measurement,setting,value
"ISIS 404071: antisense oligonucleotide targeted to murine Factor 11 mRNA, TGGTAATCCACTTTCAGAGG, target start site 869 (chemistry not given here)",Factor 11 mRNA in liver vs PBS control,"[1]; FeCl3 induced VT model, ISIS 404071 1.25-40 mg/kg, Apixaban 0.5-5 mg/kg s.c. once",significant dose-dependent reduction of Factor 11 mRNA
same,% inhibition of Factor 11 mRNA in liver relative to PBS control,[1]; ISIS 404071 1.25 mg/kg subcutaneously twice a week for 3 weeks,15%
same,% inhibition of Factor 11 mRNA in liver relative to PBS control,[1]; ISIS 404071 5 mg/kg subcutaneously twice a week for 3 weeks,63%
same,% inhibition of Factor 11 mRNA in liver relative to PBS control,[1]; ISIS 404071 10 mg/kg subcutaneously twice a week for 3 weeks,76%
same,% inhibition of Factor 11 mRNA in liver relative to PBS control,[1]; ISIS 404071 25 mg/kg subcutaneously twice a week for 3 weeks,91%
same,% inhibition of Factor 11 mRNA in liver relative to PBS control,[1]; ISIS 404071 50 mg/kg subcutaneously twice a week for 3 weeks,95%
same,bleeding in tail bleeding assay,[2],did not affect bleeding
same,"Blood (tail bleeding, collected over 40 minutes)",[2]; 1.25 mg/kg,0.00 g
same,"Blood (tail bleeding, collected over 40 minutes)",[2]; 5 mg/kg,0.00 g
same,"Blood (tail bleeding, collected over 40 minutes)",[2]; 10 mg/kg,0.04 g
same,"Blood (tail bleeding, collected over 40 minutes)",[2]; 25 mg/kg,0.01 g
same,"Blood (tail bleeding, collected over 40 minutes)",[2]; 50 mg/kg,0.01 g
same,bleeding in tail bleeding assay,[3],did not affect bleeding
same,"Blood (tail bleeding, collected over 40 minutes)",[3]; 1.25 mg/kg,0.00 g
same,"Blood (tail bleeding, collected over 40 minutes)",[3]; 5 mg/kg,0.03 g
same,"Blood (tail bleeding, collected over 40 minutes)",[3]; 10 mg/kg,0.00 g
same,"Blood (tail bleeding, collected over 40 minutes)",[3]; 20 mg/kg,0.06 g
same,"Blood (tail bleeding, collected over 40 minutes)",[3]; 40 mg/kg,0.03 g
same,PT INR in murine plasma,[4]; [7],0.97 INR
same,aPTT INR in murine plasma,[4]; [7],1.14 INR
same,PT INR in murine plasma,[4]; [8],1.00 INR
same,aPTT INR in murine plasma,[4]; [8],1.28 INR
same,PT INR in murine plasma,[4]; [9],0.97 INR
same,aPTT INR in murine plasma,[4]; [9],1.52 INR
same,PT,[4]; [10],does not significantly increase PT
same,aPTT,[4]; [10],also increases aPTT in a dose-dependent manner
same,"PF-4 in vena cava, percentage as compared to PBS controls (thrombus formation)",[5],18%
same,PT,[6]; [11],not significantly affected
same,aPTT,[6]; [11],increase aPTT
same,PT INR,[6]; [12],0.95 INR
same,aPTT INR,[6]; [12],1.31 INR
